Data published in the supplement of paper PMC10331698.
± gives the standard deviation of the averaged measurements.

Tests used:
Assay in all cases: level (log10 ratio to DMSO vehicle control); higher = higher biomarker level / cell amount than vehicle control
Perfluorononanoic acid = compound: O=C(O)C(F)(F)C(F)(F)C(F)(F)C(F)(F)C(F)(F)C(F)(F)C(F)(F)C(F)(F)F [Perfluorononanoic acid] (in DMSO)
Method: (§1)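 BioMAP Diversity Plus panel of 12 human primary cell co-culture systems (3C, 4H, LPS, SAg, BT, BF4T, BE3C, CASM3C, HDF3CGF, KF3CT, MyoF, Mphg). Compounds were added 1 h before stimulation and left for 24 h (MyoF 48 h; BT 72 h for soluble read-outs or 6 d for IgG). Biomarkers were read by ELISA, cytotoxicity by SRB, PBMC viability and proliferation by Alamar Blue. Each well value was divided by the mean of 8 DMSO control wells on the same plate and log10 transformed; duplicate blinded samples were tested at 4 concentrations.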

[1] = compound: C=C(C)C(=O)OCCC(F)(F)C(F)(F)C(F)(F)C(F)(F)C(F)(F)C(F)(F)C(F)(F)C(F)(F)F [8:2 Fluorotelomer methacrylate] (in DMSO)
Method: as §1

[2] = compound: OCCC(F)(F)C(F)(F)C(F)(F)C(F)(F)F [4:2 Fluorotelomer alcohol] (in DMSO)
Method: as §1

[3] = compound: O=C(O)C(F)(OC(F)(F)C(F)(OC(F)(F)C(F)(OC(F)(F)C(F)(F)C(F)(F)F)C(F)(F)F)C(F)(F)F)C(F)(F)F [Perfluoro-(2,5,8-trimethyl-3,6,9-trioxadodecanoic)acid] (in DMSO)
Method: as §1

[4] = compound: CN(C(=O)C(F)(F)C(F)(F)C(F)(F)F)[Si](C)(C)C [N-Methyl-N-trimethylsilylheptafluorobutyramide] (in DMSO)
Method: as §1

[5] = compound: O=C(O)C(F)(F)OC(F)(F)C(F)(F)OC(F)(F)C(F)(F)OC(F)(F)C(F)(F)C(F)(F)C(F)(F)F [Perfluoro-3,6,9-trioxatridecanoic acid] (in DMSO); conditions: 6700 nM
Method: as §1

[6] = compound: O=C(O)C(F)(F)C(F)(F)C(F)(F)OC(F)(F)F [Perfluoro(4-methoxybutanoic) acid] (in DMSO)
Method: as §1

[7] = compound: O=S(=O)(O)C(F)(F)C(F)(F)OC(F)(F)C(F)(F)F [Perfluoro(2-ethoxyethane)sulfonic acid] (in DMSO)
Method: as §1

| Test System | level (log10) (Perfluorononanoic acid; 6700 nM) | level (log10) (Perfluorononanoic acid; 20000 nM) | level (log10) ([1]; 6700 nM) | level (log10) ([1]; 20000 nM) | level (log10) ([2]; 6700 nM) | level (log10) ([2]; 20000 nM) | level (log10) ([2]; 60000 nM) | level (log10) ([3]; 1100 nM) | level (log10) ([3]; 3300 nM) | level (log10) ([3]; 10000 nM) | level (log10) ([4]; 6700 nM) | level (log10) ([4]; 20000 nM) | level (log10) ([4]; 60000 nM) | level (log10) [5] | level (log10) ([6]; 6700 nM) | level (log10) ([6]; 20000 nM) | level (log10) ([6]; 60000 nM) | level (log10) ([7]; 6700 nM) | level (log10) ([7]; 20000 nM) | level (log10) ([7]; 60000 nM) |
| --- | --- | --- | --- | --- | --- | --- | --- | --- | --- | --- | --- | --- | --- | --- | --- | --- | --- | --- | --- | --- |
| HDF3CGF:SRB | 0.014 ± 0.0014 | -0.0155 ± 0.026 | -0.021 ± 0.055 | -0.0015 ± 0.046 | -0.0105 ± 0.015 | -0.022 ± 0.0028 | 0.011 ± 0.013 | -0.009 ± 0.023 | 0.0075 ± 0.011 | 0.027 ± 0.0071 | -0.048 ± 0.0028 | -0.0015 ± 0.056 | 0.0205 ± 0.086 | -0.107 ± 0.0021 | 0.006 ± 0.0071 | 0.011 ± 0.047 | 0.0125 ± 0.04 | -0.02 ± 0.0085 | -0.017 ± 0.013 | 0.0085 ± 0.1 |
| CASM3C:LDLR | -0.05 ± 0.02 | -0.0415 ± 0.011 | -0.0085 ± 0.018 | 0.0055 ± 0.026 | -0.0485 ± 0.026 | -0.034 ± 0.011 | -0.0455 ± 0.037 | 0.0065 ± 0.011 | 0.004 ± 0.0014 | 0.0025 ± 0.021 | -0.006 ± 0.0099 | -0.0055 ± 0.005 | 0.0255 ± 0.035 | -0.029 ± 0.011 | -0.0135 ± 0.011 | -0.0245 ± 0.023 | 0.0035 ± 0.044 | -0.006 ± 0.0014 | -0.0085 ± 0.00071 | 0.0005 ± 0.023 |
| HDF3CGF:Proliferation 72hr | 0.143 ± 0.036 | -0.182 ± 0.24 | -0.0395 ± 0.028 | -0.043 ± 0.069 | -0.014 ± 0.045 | -0.022 ± 0.0014 | 0.033 ± 0.027 | -0.0205 ± 0.011 | 0.038 ± 0.0099 | 0.0395 ± 0.028 | 0.0075 ± 0.013 | 0.052 ± 0.042 | 0.0225 ± 0.011 | -0.827 ± 0.29 | -0.003 ± 0.047 | 0.0295 ± 0.0021 | -0.003 ± 0.031 | -0.0225 ± 0.021 | 0.004 ± 0.0042 | -0.067 ± 0.03 |
| CASM3C:M-CSF | 0.045 ± 0.0099 | 0.0435 ± 0.028 | -0.0325 ± 0.019 | -0.019 ± 0.067 | -0.085 ± 0.027 | -0.048 ± 0.0028 | 0.0105 ± 0.0035 | -0.0285 ± 0.029 | 0.0055 ± 0.016 | 0.002 ± 0.0014 | -0.011 ± 0.0028 | -0.018 ± 0.0042 | 0.0145 ± 0.036 | 0.0215 ± 0.013 | -0.027 ± 0.021 | -0.035 ± 0.021 | 0.029 ± 0.034 | -0.0075 ± 0.011 | 0 ± 0.031 | 0.0615 ± 0.057 |
| lMphg:CCL3/MIP-1alpha | 0.004 ± 0.0028 | 0.0175 ± 0.0021 | 0.0075 ± 0.039 | 0.028 ± 0.065 | -0.009 ± 0.0042 | -0.011 ± 0.014 | 0.0005 ± 0.019 | 0.0465 ± 0.019 | -0.003 ± 0.05 | 0.039 ± 0.041 | -0.007 ± 0.0057 | -0.018 ± 0.011 | 0.0255 ± 0.032 | -0.0245 ± 0.019 | -0.0355 ± 0.035 | -0.038 ± 0.024 | -0.015 ± 0.021 | 0.0145 ± 0.025 | 0.0015 ± 0.0064 | 0.0065 ± 0.021 |
| lMphg:SRB-Mphg | -0.0205 ± 0.035 | -0.062 ± 0.081 | 0.0085 ± 0.011 | -0.009 ± 0.031 | -0.007 ± 0.03 | -0.004 ± 0.018 | 0.016 ± 0.017 | -0.0035 ± 0.00071 | -0.0135 ± 0.0092 | 0.014 ± 0.014 | 0.0035 ± 0.00071 | 0.002 ± 0.031 | 0.015 ± 0.02 | 0.0035 ± 0.0035 | -0.013 ± 0.02 | 0.0125 ± 0.012 | 0.0115 ± 0.0021 | 0.0125 ± 0.005 | 0.0155 ± 0.015 | -0.0045 ± 0.025 |
| lMphg:IL-1alpha | -0.017 ± 0.017 | 0.0495 ± 0.0035 | -0.007 ± 0.028 | 0.0165 ± 0.073 | -0.0295 ± 0.013 | -0.0105 ± 0.005 | 0.0075 ± 0.028 | -0.0225 ± 0.021 | -0.026 ± 0.016 | 0.0045 ± 0.0078 | -0.038 ± 0.0014 | -0.034 ± 0.0071 | 0.017 ± 0.052 | 0.013 ± 0.025 | -0.051 ± 0.018 | -0.0345 ± 0.029 | 0.027 ± 0.068 | 0.006 ± 0.011 | 0.012 ± 0.0071 | 0.0335 ± 0.026 |
| MyoF:Collagen I | -0.017 ± 0.059 | -0.101 ± 0.027 | -0.0335 ± 0.015 | -0.0125 ± 0.0035 | -0.031 ± 0.044 | -0.031 ± 0.041 | 0.01 ± 0.028 | -0.0495 ± 0.026 | -0.0365 ± 0.0021 | -0.03 ± 0.0071 | 0.0025 ± 0.019 | 0.007 ± 0.023 | 0.01 ± 0.0057 | -0.598 ± 0.0057 | -0.0165 ± 0.0078 | -0.013 ± 0.0028 | -0.011 ± 0.0071 | 0.016 ± 0.011 | -0.0025 ± 0.015 | 0.039 ± 0.014 |
| HDF3CGF:CXCL8/IL-8 | -0.0065 ± 0.0064 | -0.001 ± 0.0099 | -0.0045 ± 0.0035 | -0.0025 ± 0.023 | -0.007 ± 0.0028 | -0.0105 ± 0.0064 | -0.002 ± 0.011 | 0.0005 ± 0.00071 | 0 ± 0.0071 | 0.004 ± 0.0014 | -0.0015 ± 0.0092 | -0.003 ± 0.0057 | 0.0075 ± 0.0078 | 0.003 ± 0.0042 | 0.005 ± 0.0057 | 0.0015 ± 0.00071 | 0.008 | -0.015 ± 0.0028 | -0.0075 ± 0.0064 | 0.0045 ± 0.0035 |
| KF3CT:SRB | -0.011 ± 0.0057 | -0.0215 ± 0.0021 | -0.003 | 0.004 ± 0.0042 | -0.009 ± 0.0071 | -0.009 ± 0.013 | -0.0025 ± 0.00071 | 0.0005 ± 0.011 | 0.0025 ± 0.016 | -0.008 ± 0.0014 | -0.004 ± 0.0014 | -0.0095 ± 0.015 | -0.003 ± 0.013 | -0.0355 ± 0.0035 | -0.004 ± 0.0014 | 0.0015 ± 0.0021 | -0.0015 ± 0.0064 | -0.0065 ± 0.00071 | -0.0035 ± 0.0035 | 0.007 ± 0.0099 |
| MyoF:CD106/VCAM-1 | -0.0475 ± 0.025 | -0.024 ± 0.016 | -0.0125 ± 0.012 | 0.002 ± 0.011 | -0.0275 ± 0.0078 | -0.024 ± 0.0042 | -0.0225 ± 0.064 | 0 ± 0.0028 | -0.0035 ± 0.0092 | 0.013 ± 0.0099 | -0.0125 ± 0.021 | -0.014 ± 0.024 | -0.017 ± 0.0085 | -0.212 ± 0.048 | -0.0175 ± 0.0021 | -0.0205 ± 0.0092 | -0.018 ± 0.016 | 0.006 ± 0.013 | -0.0095 ± 0.015 | 0.013 ± 0.013 |
| HDF3CGF:CCL2/MCP-1 | 0.0235 ± 0.074 | -0.056 ± 0.055 | -0.0095 ± 0.016 | -0.012 ± 0.023 | -0.0305 ± 0.08 | -0.043 ± 0.027 | -0.0315 ± 0.052 | -0.0035 ± 0.016 | -0.0365 ± 0.005 | -0.01 ± 0.0042 | -0.032 ± 0.0085 | -0.0245 ± 0.0078 | -0.0205 ± 0.028 | -0.274 ± 0.013 | 0.0035 ± 0.035 | 0.012 ± 0.018 | 0.019 ± 0.064 | 0.014 ± 0.0057 | 0.0175 ± 0.0078 | 0.035 ± 0.031 |
| HDF3CGF:CXCL10/IP-10 | -0.019 ± 0.024 | -0.061 ± 0.016 | -0.029 ± 0.021 | -0.0425 ± 0.005 | -0.0075 ± 0.025 | -0.002 ± 0.023 | -0.0095 ± 0.0035 | 0 ± 0.0085 | -0.01 ± 0.0085 | 0.0185 ± 0.026 | 0.0155 ± 0.00071 | 0.0165 ± 0.013 | 0.005 ± 0.0028 | -0.3805 ± 0.00071 | 0.0145 ± 0.016 | -0.004 ± 0.0042 | -0.004 ± 0.0099 | 0.0105 ± 0.033 | -0.0145 ± 0.05 | -0.0105 ± 0.056 |
